The record followed here is patent publication US11198713B2, “Agents modulating beta-catenin functions and methods thereof” (FOG PHARMACEUTICALS, INC., priority 2017, dated 2021).

Data set [1] deals with T1, full-length beta-catenin (Axin site) (Homo sapiens, UniProt P35222).
T1 construct: 15 nM full-length beta-catenin, 20 nM FITC labeled peptide in buffer
T1 sequence (P35222 1-781): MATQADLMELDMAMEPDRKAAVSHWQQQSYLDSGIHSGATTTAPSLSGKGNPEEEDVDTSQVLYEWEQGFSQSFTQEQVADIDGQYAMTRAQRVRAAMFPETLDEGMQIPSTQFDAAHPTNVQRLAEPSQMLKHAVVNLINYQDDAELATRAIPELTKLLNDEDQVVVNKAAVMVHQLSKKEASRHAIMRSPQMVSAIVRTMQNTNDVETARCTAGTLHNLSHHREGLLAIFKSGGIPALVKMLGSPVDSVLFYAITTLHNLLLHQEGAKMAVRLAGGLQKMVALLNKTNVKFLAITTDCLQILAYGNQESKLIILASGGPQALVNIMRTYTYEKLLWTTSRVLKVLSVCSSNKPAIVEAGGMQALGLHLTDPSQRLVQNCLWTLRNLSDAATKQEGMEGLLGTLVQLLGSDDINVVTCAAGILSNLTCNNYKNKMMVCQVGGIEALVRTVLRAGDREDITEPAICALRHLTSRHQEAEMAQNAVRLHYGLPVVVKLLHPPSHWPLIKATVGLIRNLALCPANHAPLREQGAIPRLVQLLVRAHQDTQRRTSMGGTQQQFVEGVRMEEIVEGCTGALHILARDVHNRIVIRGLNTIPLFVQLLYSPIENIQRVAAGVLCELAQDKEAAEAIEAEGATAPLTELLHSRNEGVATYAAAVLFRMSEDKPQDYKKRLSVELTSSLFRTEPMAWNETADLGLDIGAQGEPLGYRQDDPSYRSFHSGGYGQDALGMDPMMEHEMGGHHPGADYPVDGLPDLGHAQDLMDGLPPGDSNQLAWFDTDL
As to the kind of experiment: Competition fluorescence polarization assay (Axin site probe). The format is binding. The following applies: competition fluorescence polarization, Table 2; read-out: in vitro FP EC50. The method in brief:
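Competition FP: 15 nM full-length β-catenin pre-incubated 5 min with 20 nM FITC-labelled stapled Axin-site peptide, then titrated peptide added (3-fold series from 5 μM) for 15 min in the dark. Buffer 50 mM Tris pH 8.0, 250 mM NaCl, 2% glycerol, 0.5 mM EDTA; duplicate reads.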
For orientation: Polarisation of emitted light reports the rotation of a fluorescent probe.

Data set [2] in a line: Solubility in DPBS (A280 of supernatant). The format is physicochemical. The following applies: DPBS. On the procedure: Suitable assays for assessing solubility are widely known in the art and can be utilized in accordance with the present disclosure. In some embodiments, in an exemplary protocol, dried peptide was reconstituted in DPBS (DPBS, 1×, cell culture grade, Sigma D8537) in triplicate, vortexed, sonicated and then centrifuged. Absorbance of the supernatant was measured at A280 (Nanodrop 2000) and the concentration was determined using the extinction coefficient for tryptophan. Exemplary solubility data are presented in, e.g., Table 2.

The mark [3] stands for this setting: Table 3 Part A, read-out: Solubility in DPBS.

Structures are written as SMILES. In brackets after ≈: the same amount, converted by molar mass. Where two headings read alike, the source gives them in different places. Numbered stars: 1 amine (or outer) side, 2 acyl side, 3 side chain; on linkers, the order of the positions; unused ones are H or OH. Bridge positions count the residues as written; N and C are the ends. Square brackets hold non-standard residues; d marks the D form. Peptide text beside a SMILES is read from it. 3Aminoazetidine3carboxyl = O=C(C1(N[*:1])CN([*:3])C1)[*:2]; dαMeOrn(Me) = CN(CCC[C@@](C)(N[*:1])C(=O)[*:2])[*:3]; dαMeDab(Me) = CN(CC[C@@](C)(N[*:1])C(=O)[*:2])[*:3]; αMeDab(Me) = CN(CC[C@](C)(N[*:1])C(=O)[*:2])[*:3]; X3 = O=C([C@@]1(N[*:1])CCN([*:3])C1)[*:2]; X1 = O=C([C@]1(N[*:1])CCN([*:3])C1)[*:2]; X2 = O=C(OCC=CCOC(=O)[*:2])[*:1]; Aib = CC(C)(N)C(=O)O

For `CC[C@H](C)[C@@H]1NC(=O)[C@H](Cc2c[nH]cn2)NC(=O)[C@H](C)NC(=O)[C@H](CC(=O)O)NC(=O)[C@H](CC(C)C)NC(=O)[C@H]([C@@H](C)CC)NC(=O)[C@](C)(NC(=O)[C@H](C)NC(C)=O)CCCN(C)C(=O)OCC=CCOC(=O)N(C)CC[C@](C)(C(=O)N[C@@H](CCCNC(=N)N)C(=O)N[C@H](C(=O)N[C@@H](Cc2c[nH]c3ccccc23)C(N)=O)C(C)C)NC1=O` [FP0588c, Ac-A-MI-I-L-D-A-H-I-MG-R-V-W-NH2] (Ac-A[dαMeOrn(Me)]ILDAHI[dαMeDab(Me)]RVW-NH2; linker 2-9 via X2), in data set [1], the concentration giving a half-maximal response (EC50) was < 100 nM. Further, the solubility in data set [2] (Table 2, read-out: Solubility) stood at 133 µM (≈ 219 µg/mL); in data set [2] (setting [3]), 133 µM (≈ 219 µg/mL).
As to `CC[C@H](C)[C@@H]1NC(=O)[C@H](Cc2c[nH]cn2)NC(=O)[C@H](C)NC(=O)[C@H](CC(=O)O)NC(=O)[C@H](CC(C)C)NC(=O)[C@H]([C@@H](C)CC)NC(=O)[C@](C)(NC(=O)[C@H](C)NC(C)=O)CCN(C)C(=O)OCC=CCOC(=O)N(C)CC[C@@](C)(C(=O)N[C@@H](CCCNC(=N)N)C(=O)N[C@H](C(=O)N[C@@H](Cc2c[nH]c3ccccc23)C(N)=O)C(C)C)NC1=O` [FP0594c, Ac-A-MG-I-L-D-A-H-I-MF-R-V-W-NH2] (Ac-A[dαMeDab(Me)]ILDAHI[αMeDab(Me)]RVW-NH2; linker 2-9 via X2), in data set [1], the EC50 is 100 to 500 nM. Also, the solubility in data set [2] (Table 2, read-out: Solubility) was found to be 166 µM (≈ 271 µg/mL); in data set [2] (setting [3]), 166 µM (≈ 271 µg/mL).
As to `CC[C@H](C)[C@@H]1NC(=O)[C@H](Cc2c[nH]cn2)NC(=O)[C@H](C)NC(=O)[C@H](CC(=O)O)NC(=O)[C@H](CC(C)C)NC(=O)[C@H]([C@@H](C)CC)NC(=O)[C@](C)(NC(=O)[C@H](C)NC(C)=O)CCN(C)C(=O)OCC=CCOC(=O)N2CC[C@](C(=O)N[C@@H](CCCNC(=N)N)C(=O)N[C@H](C(=O)N[C@@H](Cc3c[nH]c4ccccc34)C(N)=O)C(C)C)(C2)NC1=O` [FP0598c, Ac-A-MG-I-L-D-A-H-I-MC-R-V-W-NH2] (Ac-A[dαMeDab(Me)]ILDAHI[X3]RVW-NH2; linker 2-9 via X2), in data set [1], the EC50 is < 100 nM. Besides, the solubility thermodynamic in data set [2] (setting [3]) was found to be 91 µM (≈ 147 µg/mL).
On to `CC[C@H](C)[C@@H]1NC(=O)[C@H](Cc2c[nH]cn2)NC(=O)[C@H](C)NC(=O)[C@H](CC(=O)O)NC(=O)[C@H](CC(C)C)NC(=O)[C@H]([C@@H](C)CC)NC(=O)C2(NC(=O)[C@H](C)NC(C)=O)CN(C2)C(=O)OCC=CCOC(=O)N2CC[C@](C(=O)N[C@@H](CCCNC(=N)N)C(=O)N[C@H](C(=O)N[C@@H](Cc3c[nH]c4ccccc34)C(N)=O)C(C)C)(C2)NC1=O` [FP0616c, Ac-A-MA-I-L-D-A-H-I-MC-R-V-W-NH2] (Ac-A[3Aminoazetidine3carboxyl]ILDAHI[X3]RVW-NH2; linker 2-9 via X2), for which the EC50 in data set [1] was < 100 nM. In addition, the solubility in data set [2] (Table 2, read-out: Solubility) came out at 56 µM (≈ 88.7 µg/mL); in data set [2] (setting [3]) it was 56 µM (≈ 88.7 µg/mL).
As for `CC[C@H](C)[C@@H]1NC(=O)[C@H](Cc2c[nH]cn2)NC(=O)[C@H](C)NC(=O)[C@H](CC(=O)O)NC(=O)[C@H](CC(C)C)NC(=O)[C@H]([C@@H](C)CC)NC(=O)C2(NC(=O)[C@H](C)NC(C)=O)CN(C2)C(=O)OCC=CCOC(=O)N2CC[C@@](C(=O)N[C@@H](CCCNC(=N)N)C(=O)N[C@H](C(=O)N[C@@H](Cc3c[nH]c4ccccc34)C(N)=O)C(C)C)(C2)NC1=O` [FP0617c, Ac-A-MA-I-L-D-A-H-I-MB-R-V-W-NH2] (Ac-A[3Aminoazetidine3carboxyl]ILDAHI[X1]RVW-NH2; linker 2-9 via X2), in data set [1], the EC50 is < 100 nM. Also, the solubility in data set [2] (Table 2, read-out: Solubility) was 63 µM (≈ 99.8 µg/mL); in data set [2] (setting [3]), 63 µM (≈ 99.8 µg/mL).
On to `CC[C@H](C)[C@@H]1NC(=O)[C@H](Cc2c[nH]cn2)NC(=O)[C@H](C)NC(=O)[C@H](CC(=O)O)NC(=O)[C@H](CC(C)C)NC(=O)[C@H]([C@@H](C)CC)NC(=O)[C@@](C)(NC(=O)[C@H](C)NC(C)=O)CCN(C)C(=O)OCC=CCOC(=O)N2CC[C@@](C(=O)N[C@@H](CCCNC(=N)N)C(=O)N[C@H](C(=O)N[C@@H](Cc3c[nH]c4ccccc34)C(N)=O)C(C)C)(C2)NC1=O` [FP0626c, Ac-A-MF-I-L-D-A-H-I-MB-R-V-W-NH2] (Ac-A[αMeDab(Me)]ILDAHI[X1]RVW-NH2; linker 2-9 via X2), for which, in data set [1], the EC50 was < 100 nM. For the same compound, the solubility in data set [2] (Table 2, read-out: Solubility) was 40 µM (≈ 64.6 µg/mL); in data set [2] (setting [3]) it was 40 µM (≈ 64.6 µg/mL).
For `CC[C@H](C)[C@H](NC(=O)[C@H](Cc1c[nH]cn1)NC(=O)[C@H](C)NC(=O)[C@H](CC(=O)O)NC(=O)[C@H](CC(C)C)NC(=O)[C@@H](NC(=O)C(C)(C)NC(=O)[C@H](C)NC(C)=O)[C@@H](C)CC)C(=O)NC(C)(C)C(=O)N[C@@H](CCCNC(=N)N)C(=O)N[C@H](C(=O)N[C@@H](Cc1c[nH]c2ccccc12)C(N)=O)C(C)C` [FP0628_aib, Ac-A-Aib-I-L-D-A-H-I-Aib-R-V-W-NH2] (Ac-A[Aib]ILDAHI[Aib]RVW-NH2), the EC50 in data set [1] lay in the range of 100 to 500 nM. In data set [2] (Table 2, read-out: Solubility), the solubility came out at 88 µM (≈ 124 µg/mL).
For `CC[C@H](C)[C@@H]1NC(=O)[C@H](Cc2c[nH]cn2)NC(=O)[C@H](C)NC(=O)[C@H](CC(=O)O)NC(=O)[C@H](CC(C)C)NC(=O)[C@H]([C@@H](C)CC)NC(=O)[C@](C)(NC(=O)[C@H](C)NC(C)=O)CCCCCCC=CCOC(=O)N2CC[C@@](C(=O)N[C@@H](CCCNC(=N)N)C(=O)N[C@](C)(C(=O)N[C@@H](Cc3c[nH]c4ccccc34)C(N)=O)C(C)C)(C2)NC1=O` [FP0632c, Ac-A-R8-I-L-D-A-H-I-MB-R-aMeV-W-NH2], in data set [1], the EC50 was 100 to 500 nM. The solubility in data set [2] (Table 2, read-out: Solubility) stood at 13 µM (≈ 20.8 µg/mL).

As a reminder, the EC50 is the concentration needed to bring the measured effect to its halfway point. Broadly, the solubility is the concentration that dissolves in the medium under given conditions.
